# Assays:
# p35S::Aequorin seedlings = type: in vivo, Arabidopsis thaliana; details: in vivo
# MIK2-BAK1 association = test: Co-immunoprecipitation MIK2-BAK1; type: cell-based, Arabidopsis thaliana; details: protoplasts, MIK2-HA and BAK1-FLAG, 15 min, co-IP
# Procedure: For co-IP assays in protoplasts, protoplasts were co-transfected with pHBT-35S::MIK2-HA and pHBT-35S::BAK1-FALG or pHBT-35S::SERK4-FLAG at 50 μg DNA for 500 μL protoplasts at the density of 2 × 10^5/mL for each sample and were incubated for 12 h. After treatment with 1 µM SCOOP peptides for 15 min, samples were collected by centrifugation at 200 × g for 2 min and lysed in 300 μL IP buffer (20 mM Tris-HCl, pH 7.5, 100 mM NaCl, 1 mM EDTA, 2 mM DTT, 10% [v/v] Glycerol, 0.5% [v/v] Triton X-100 and protease inhibitor cocktail from Sigma) by vortexing. After centrifugation at 10,000 × g for 10 min at 4 °C, 30 μL of supernatant was collected for input controls. The remaining supernatant was pre-incubated with protein-G-agarose beads at 4 °C for 1 h with gentle shaking at […] on a rocker. IP was carried out with α-FLAG agarose for 3 h at 4 °C. Beads were collected by 500 × g centrifugation for 2 min and washed three times with washing buffer (20 mM Tris-HCl, pH 7.5, 100 mM NaCl, 1 mM EDTA, 0.1% [v/v] Triton X-100) and once with 50 mM Tris-HCl, pH 7.5. Immunoprecipitated proteins and input proteins were analyzed by immunoblotting with α-HA (1:3000; Roche, Cat # 12013819001) or α-FLAG antibodies (1:3000; Sigma-Aldrich, Cat # A8592).
# For co-IP assays in transgenic seedlings, leaves of 4-week-old pMIK2::MIK2-GFP transgenic plants were hand-inoculated with 1 μM SCOOP10^B or SCOOP12 and were treated for 30 min, followed by total protein isolation with extraction buffer (50 mM Tris-HCl, pH 7.5, 150 mM NaCl, 1% [v/v] NP-40 and 1:200 protease inhibitor cocktail from Sigma). Co-IP was carried out the same as for co-IP with protoplasts except that GFP-Trap agarose beads (Chromotek) were used instead. Immunoprecipitated proteins and input proteins were analyzed by immunoblotting with α-GFP (1:3500; Roche, Cat # 11814460001) or α-BAK1 antibodies (1:2000)[64].
# mik2 mutant seedlings = test: ROS assay (luminol), mik2 mutants; type: in vivo, Arabidopsis thaliana; details: mik2 mutants, 100 nM SCOOPs or 1 µM FocSCOOPL
# Procedure: (§1) ROS burst was determined by a luminol-based assay. […] Then, ddH2O was replaced by 200 µL of reaction solution containing 50 µM of luminol, and 10 µg/mL of horseradish peroxidase (Sigma-Aldrich) supplemented with or without 100 nM or 1 μM peptide. Luminescence was measured immediately after adding the solution with a luminometer (Glomax 20/20n, Promega) with a one-second interval for 15 min. The total values of ROS production were indicated as means of the relative light units (RLUs).
# [1] = tested on: bak1-4 and bak1-5/serk4 mutant seedlings; test: ROS assay (luminol), coreceptor mutants; type: in vivo, Arabidopsis thaliana
# Procedure: as §1
# [2] = tested on: bik1/pbl1 mutant seedlings; test: ROS assay (luminol), bik1/pbl1; type: in vivo, Arabidopsis thaliana; details: bik1/pbl1, 100 nM SCOOP12 or 1 µM FocSCOOPL
# Procedure: as §1
# rbohD mutant seedlings = test: ROS assay (luminol), rbohD; type: in vivo, Arabidopsis thaliana
# Procedure: as §1
# [3] = tested on: MPK3, MPK4 and MPK6 phosphorylation, mik2-1 seedlings; test: MAPK assay (α-pERK1/2 immunoblot), mik2-1; type: in vivo, Arabidopsis thaliana; design: dose or concentration left out as unconfirmed; details: mik2-1, α-pERK1/2 immunoblot
sequence,measurement,setting,value
"MAQSWLKEESSSSHSERAGGR [FocSCOOPL, SCOOPL peptide from F. oxysporum f. sp. conglutinans strain Fo5176]",concentration inducing cytosolic Ca^2+ increase,p35S::Aequorin seedlings,100 nM
same,cytosolic Ca^2+ increase,p35S::Aequorin seedlings,triggers the cytosolic Ca^2+ increase
same,MIK2-BAK1 association in protoplasts,MIK2-BAK1 association,induces MIK2-BAK1 association
same,ROS production in mik2,mik2 mutant seedlings,blocked in mik2
same,ROS production in bak1-4,"[1]; bak1-4, 100 nM SCOOP12","blocked in mik2 (h), and in bak1-4"
same,ROS production in bak1-5/serk4,"[1]; bak1-5/serk4, 100 nM SCOOP12 or 1 µM FocSCOOPL",compromised in the bak1-5/serk4
same,ROS production in bik1/pbl1,[2],"compromised in the bak1-5/serk4, bik1/pbl1, and rbohD mutants"
same,ROS production in rbohD,rbohD mutant seedlings,"compromised in the bak1-5/serk4, bik1/pbl1, and rbohD mutants"
same,MAPK activation in mik2,[3],blocked in mik2-1

# From article PMC8448819, “The Arabidopsis MIK2 receptor elicits immunity by sensing a conserved signature from phytocytokines and microbes” (Nature Communications, 2021)
